Source: patent US8362081B2, “Methods for treating hemorrhagic conditions” (priority 2009, dated 2013)

How the values were obtained:
liver wound bleeding = assay: Rabbit liver hemorrhage: bleeding time and extent; format: in vivo; settings: 0.5 KU/kg injected via ear vein at wounding, vs physiological saline control
Experimental: Healthy rabbits having a weight of 2-2.5 kg were distributed randomly into four groups consisting of 6 rabbits per group. The rabbits in each group were fed only water for the twelve-hour period prior to operation. Each rabbit was anaesthetized by receiving an injection of sodium pentobarbital (30 mg/kg) in the abdominal cavity. An incision was made in the upper abdominal cavity of each animal and a piece of the liver was removed leaving a wound 2 cm in length, 1 cm in width and 0.5 cm in height.
At the time of wounding, the animals received by injection (2 ml/kg) via an ear vein one of following four compositions suspended in physiological saline: control, 0.5 KU/kg Reptilase, 25 mg/kg Sodium Dencichine, or 1 mg/kg solid dispersion composition of Dencichine prepared according to Example 1. Following the injection, the bleeding time and extent was recorded for each rabbit until the liver wound stopped bleeding.

acute gastric bleeding = assay: Gastrorrhagia of rats: acute gastric bleeding time and extent; format: in vivo, Sprague-Dawley rat; settings: rat gastric wound; 0.5 KU/kg via femoral vein 30 min before wounding; vs physiological saline control
Experimental: Healthy Sprague-Dawley rats having a weight of 180-220 g were distributed randomly into four groups consisting of 10 rats per group. The rats in each group were fed only water for the twelve-hour period prior to operation. Each rat was anaesthetized by receiving an injection of sodium pentobarbital (30 mg/kg) in the abdominal cavity. An incision was made in the upper abdominal cavity of each animal and the stomach exposed to air and minced along the greater curvature. The stomach was vacated for each animal and cleaned with sterile cotton swab.
The animals received by injection (1 ml/100 g) via a femoral vein one of following four compositions suspended in physiological saline: control, 0.5 KU/kg Reptilase, 25 mg/kg Sodium Dencichine, or 1 mg/kg solid dispersion composition of Dencichine prepared according to Example 1. Thirty minutes following the injection, one piece of the gastric body from each animal was excised using biopsy forceps to establish acute gastric bleeding. The bleeding time and extent was recorded for each rat until the wound stopped bleeding.

tail wound bleeding = assay: Tail bleeding time of mouse; format: in vivo, ICR mouse; settings: mouse tail cut; 0.5 KU/kg via tail vein 30 min before cut; vs physiological saline control
Experimental: Healthy male ICR mice having a weight of 18-22 g were distributed randomly into […] consisting of 10 mice per group. The animals received by injection (0.1 ml/10 g) via the tail vein one of following four compositions suspended in physiological saline: control, 0.5 KU/kg Reptilase, 25 mg/kg Sodium Dencichine, or 1 mg/kg solid dispersion composition of Dencichine prepared according to Example 1. Thirty minutes following injection the tail of each mouse was cut 0.5 cm from the tail tip. The cut tail wound bleeding of each mouse was monitored by scrubbing the tail tip with a filter paper at timed intervals (30 s, 60 s, and every 10 s thereafter) until blood could not be seen on the filter paper.

Reptilase: Haemostatic comparator injected at 0.5 KU/kg
significantly shortened: time and extent of the wound bleeding (liver wound bleeding) | time and extent of the wound bleeding (acute gastric bleeding) | time required to stop the tail wound bleeding (tail wound bleeding)
